The source made the active and inactive calls. The calls are words filed in the database; no cut-off is given here.
Key:
L6 [1] = experiment: Induction of glucose uptake in rat L6 cells assessed as fold increase by measuring 2-NBDG uptake at 25 uM preincubated in high glucose medium for 48 hrs followed by compound addition and measured after 24 hrs; assay type: functional
L6 [2] = experiment: Induction of glucose uptake in rat L6 cells assessed as fold increase by measuring 2-NBDG uptake at 2.5 uM preincubated in high glucose medium for 48 hrs followed by compound addition and measured after 24 hrs; assay type: functional
L6 [3] = experiment: Induction of glucose uptake in rat L6 cells assessed as fold increase by measuring 2-NBDG uptake at 0.25 uM preincubated in high glucose medium for 48 hrs followed by compound addition and measured after 24 hrs; assay type: functional
[4] = target: T1, AMP-activated protein kinase, AMPK (Rattus norvegicus) (UniProt P54645+Q09137+P80386+P80385+Q9QZH4+Q6V7V4+D4A7E4); experiment: Activation of AMPK phosphorylation in rat L6 cells incubated for 24 hrs by Western blot analysis; assay type: cell-based; conditions: filed as activator, dose 0.6-9.31 µM
[5] = target: T1, AMP-activated protein kinase, AMPK (Rattus norvegicus); experiment: Activation of AMPK phosphorylation at Thr172 residue in rat L6 cells assessed as fold increase at 0.25 uM incubated for 24 hrs by Western blot analysis (reference value: 0.6); assay type: cell-based; conditions: filed as activator
[6] = target: T1, AMP-activated protein kinase, AMPK (Rattus norvegicus); experiment: Activation of AMPK phosphorylation at Thr172 residue in rat L6 cells assessed as fold increase at 10 uM incubated for 24 hrs by Western blot analysis (reference value: 0.6); assay type: cell-based; conditions: filed as activator
L6 [7] = experiment: Inhibition of AKT phosphorylation at Ser473 in rat L6 cells assessed as fold reduction at 0.1 uM incubated for 24 hrs by Western blot analysis (reference value: 1.1); assay type: cell-based
L6 [8] = experiment: Inhibition of AKT phosphorylation at Ser473 in rat L6 cells assessed as fold reduction at 0.25 uM incubated for 24 hrs by Western blot analysis (reference value: 1.1); assay type: cell-based
[9] = target: T2, Serine/threonine-protein kinase STK11 (Rattus norvegicus) (UniProt D4AE59); experiment: Activation of LKB1 in rat L6 cells assessed as fold increase in phosphorylation at Ser428 at 0.1 uM incubated for 24 hrs by Western blot analysis (reference value: 4.6); assay type: cell-based; conditions: filed as activator
T2 sequence (whole entry): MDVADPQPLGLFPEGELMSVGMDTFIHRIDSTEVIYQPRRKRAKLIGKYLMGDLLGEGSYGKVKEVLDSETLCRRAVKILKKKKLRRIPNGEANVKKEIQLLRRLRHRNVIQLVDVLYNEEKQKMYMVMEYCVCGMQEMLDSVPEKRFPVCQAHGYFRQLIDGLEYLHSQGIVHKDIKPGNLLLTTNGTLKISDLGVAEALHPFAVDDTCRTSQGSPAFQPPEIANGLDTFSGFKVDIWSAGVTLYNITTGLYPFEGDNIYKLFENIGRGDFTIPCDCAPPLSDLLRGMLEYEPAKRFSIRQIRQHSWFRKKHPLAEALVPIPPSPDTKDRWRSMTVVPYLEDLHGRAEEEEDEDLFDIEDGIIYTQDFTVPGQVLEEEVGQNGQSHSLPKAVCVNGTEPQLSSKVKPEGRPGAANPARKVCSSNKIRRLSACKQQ

[10] = target: T2, Serine/threonine-protein kinase STK11 (Rattus norvegicus); experiment: Activation of LKB1 in rat L6 cells assessed as fold increase in phosphorylation at Ser428 at 0.25 uM incubated for 24 hrs by Western blot analysis (reference value: 4.6); assay type: cell-based; conditions: filed as activator
[11] = target: T2, Serine/threonine-protein kinase STK11 (Rattus norvegicus); experiment: Activation of LKB1 in rat L6 cells assessed as fold increase in phosphorylation at Ser428 at 0.5 uM incubated for 24 hrs by Western blot analysis (reference value: 4.6); assay type: cell-based; conditions: filed as activator
[12] = target: T2, Serine/threonine-protein kinase STK11 (Rattus norvegicus); experiment: Activation of LKB1 in rat L6 cells assessed as fold increase in phosphorylation at Ser428 at 1 uM incubated for 24 hrs by Western blot analysis (reference value: 4.6); assay type: cell-based; conditions: filed as activator
[13] = target: T2, Serine/threonine-protein kinase STK11 (Rattus norvegicus); experiment: Activation of LKB1 in rat L6 cells assessed as fold increase in phosphorylation at Ser428 at 2.5 uM incubated for 24 hrs by Western blot analysis (reference value: 4.6); assay type: cell-based; conditions: filed as activator
[14] = target: T2, Serine/threonine-protein kinase STK11 (Rattus norvegicus); experiment: Activation of LKB1 in rat L6 cells assessed as fold increase in phosphorylation at Ser428 at 5 uM incubated for 24 hrs by Western blot analysis (reference value: 4.6); assay type: cell-based; conditions: filed as activator
[15] = target: T2, Serine/threonine-protein kinase STK11 (Rattus norvegicus); experiment: Activation of LKB1 in rat L6 cells assessed as fold increase in phosphorylation at Ser428 at 10 uM incubated for 24 hrs by Western blot analysis (reference value: 4.6); assay type: cell-based; conditions: filed as activator
L6 [16] = experiment: Inhibition of AKT phosphorylation at Ser473 in rat L6 cells assessed as fold reduction at 0.5 uM incubated for 24 hrs by Western blot analysis (reference value: 1.1); assay type: cell-based
L6 [17] = experiment: Inhibition of AKT phosphorylation at Ser473 in rat L6 cells assessed as fold reduction at 1 uM incubated for 24 hrs by Western blot analysis (reference value: 1.1); assay type: cell-based
L6 [18] = experiment: Inhibition of AKT phosphorylation at Ser473 in rat L6 cells assessed as fold reduction at 2.5 uM incubated for 24 hrs by Western blot analysis (reference value: 1.1); assay type: cell-based
L6 [19] = experiment: Inhibition of AKT phosphorylation at Ser473 in rat L6 cells assessed as fold reduction at 5 uM incubated for 24 hrs by Western blot analysis (reference value: 1.1); assay type: cell-based
L6 [20] = experiment: Inhibition of AKT phosphorylation at Ser473 in rat L6 cells assessed as fold reduction at 10 uM incubated for 24 hrs by Western blot analysis (reference value: 1.1); assay type: cell-based
[21] = target: T1, AMP-activated protein kinase, AMPK (Rattus norvegicus); experiment: Activation of AMPK phosphorylation at Thr172 residue in rat L6 cells assessed as fold increase at 0.1 uM incubated for 24 hrs by Western blot analysis (reference value: 0.6); assay type: cell-based; conditions: filed as activator
[22] = target: T1, AMP-activated protein kinase, AMPK (Rattus norvegicus); experiment: Activation of AMPK phosphorylation at Thr172 residue in rat L6 cells assessed as fold increase at 0.5 uM incubated for 24 hrs by Western blot analysis (reference value: 0.6); assay type: cell-based; conditions: filed as activator
[23] = target: T1, AMP-activated protein kinase, AMPK (Rattus norvegicus); experiment: Activation of AMPK phosphorylation at Thr172 residue in rat L6 cells assessed as fold increase at 1 uM incubated for 24 hrs by Western blot analysis (reference value: 0.6); assay type: cell-based; conditions: filed as activator
[24] = target: T1, AMP-activated protein kinase, AMPK (Rattus norvegicus); experiment: Activation of AMPK phosphorylation at Thr172 residue in rat L6 cells assessed as fold increase at 2.5 uM incubated for 24 hrs by Western blot analysis (reference value: 0.6); assay type: cell-based; conditions: filed as activator
[25] = target: T1, AMP-activated protein kinase, AMPK (Rattus norvegicus); experiment: Activation of AMPK phosphorylation at Thr172 residue in rat L6 cells assessed as fold increase at 5 uM incubated for 24 hrs by Western blot analysis (reference value: 0.6); assay type: cell-based; conditions: filed as activator
[26] = Volume of distribution at steady state in C57BL/6 mouse at 5 mg/kg, iv; assay type: ADME, organism-based; conditions: in vivo, read-out: Vdss
[27] = Clearance in C57BL/6 mouse at 5 mg/kg, iv; assay type: ADME, organism-based; conditions: in vivo
[28] = Half life in C57BL/6 mouse at 5 mg/kg, iv; assay type: ADME, organism-based; conditions: in vivo
[29] = Tmax in C57BL/6 mouse at 25 mg/kg, po; assay type: ADME, organism-based; conditions: in vivo
[30] = Cmax in C57BL/6 mouse at 25 mg/kg, po; assay type: ADME, organism-based; design: dose 25 mg/kg, route po; conditions: in vivo
[31] = Half life in C57BL/6 mouse at 25 mg/kg, po; assay type: ADME, organism-based; conditions: in vivo
[32] = Oral bioavailability in C57BL/6 mouse at 25 mg/kg; assay type: ADME, organism-based; conditions: in vivo
[33] = Half life in C57BL/6 mouse blood; assay type: ADME, tissue-based
INS-1E [34] = experiment: Anti-hyperglycemic activity in rat INS-1E cells assessed as insulin secretion […] after 24 hrs; assay type: functional, cell-based
INS-1E [35] = experiment: Anti-hyperglycemic activity in rat INS-1E cells assessed as glucose stimulated insulin secretion at 1 to 2 uM after 24 hrs; assay type: functional, cell-based; conditions: dose 1-2 µM
INS-1E [36] = experiment: Anti-hyperglycemic activity in rat INS-1E cells assessed as basal insulin secretion after 24 hrs; assay type: functional, cell-based
INS-1E [37] = experiment: Anti-hyperglycemic activity in rat INS-1E cells assessed as total intracellular insulin secretion at 2 uM after 24 hrs; assay type: functional, cell-based
[38] = target: T1, AMP-activated protein kinase, AMPK (Rattus norvegicus); experiment: Activation of AMPK phosphorylation in rat INS-1E cells incubated for 24 hrs; assay type: cell-based; conditions: filed as activator, dose 0.5-2 µM
[39] = target: T1, AMP-activated protein kinase, AMPK (Rattus norvegicus); experiment: Activation of AMPK phosphorylation in rat INS-1E beta-cells at 2 uM incubated for 24 hrs; assay type: cell-based; conditions: filed as activator

c1cc(C2CCc3cc(C4SCCCS4)ccc3O2)ccn1 (centres undefined)
fold change (FC) (L6 [1]): 1.1 | fold change (FC) (L6 [2]): 1.2 | fold change (FC) (L6 [3]): 1.8 | Activity [4]: Dose-Dependent Effect | fold change (FC) [5]: 2.33 | fold change (FC) [6]: 9 | fold change (FC) (L6 [7]): 1.1 | fold change (FC) (L6 [8]): 0.22 | fold change (FC) [9]: 5.56 | fold change (FC) [10]: 5.33 | fold change (FC) [11]: 5.25 | fold change (FC) [12]: 5.71 | fold change (FC) [13]: 4.1 | fold change (FC) [14]: 4.78 | fold change (FC) [15]: 5 | fold change (FC) (L6 [16]): 0.12 | fold change (FC) (L6 [17]): 0.3 | fold change (FC) (L6 [18]): 0.18 | fold change (FC) (L6 [19]): 0.25 | fold change (FC) (L6 [20]): 0.18 | fold change (FC) [21]: 0.5 | fold change (FC) [22]: 1.33 | fold change (FC) [23]: 1.58 | fold change (FC) [24]: 5.11 | fold change (FC) [25]: 6.32 | Vd [26]: 1.23 L/kg | clearance [27]: 31.2 mL/min/kg | half-life [28]: 49.6 min | Tmax [29]: 30 min | Cmax [30]: 7630 ng/mL | half-life [31]: 66.6 min | bioavailability [32]: 99% | half-life [33]: 66.6 min | Activity (INS-1E [34]): Dose-Dependent Effect | Activity (INS-1E [35]): Active | Activity (INS-1E [36]): inactive | Activity (INS-1E [37]): inactive | Activity [38]: Dose-Dependent Effect | Activity [39]: Active

Reference: ChEMBL document CHEMBL5257126, “Moderately lipophilic 2-(Het)aryl-6-dithioacetals, 2-phenyl-1,4-benzodioxane-6-dithioacetals and 2-phenylbenzofuran-5-dithioacetals: Synthesis and primary evaluation as potential antidiabetic AMPK-activators” (Bioorg Med Chem, 2023)
